From patent US8932597B2 (priority 2008, dated 2015)

Legend:
HuM2e antibody 23K12 = format: binding, human
[1] = test system: anti-M2 human monoclonal antibody Z3G1; format: binding

Row | Substance | Signal (peptides that bind to 23K21 and 8I10) (HuM2e antibody 23K12) | Signal (peptides that bind to Z3G1) [1] | Signal (peptides that show specific binding to Z3G1) [1] | Binding to 23K12 (in words) (HuM2e antibody 23K12) | Binding to Z3G1 (in words) [1]
1 | 423 (SLLTEVETPIRNEWGCRCNDSHD; epitope peptide) [compound 423] | 782 | 2353 |  |  | 
2 | 705 (SLLTEVKTPIRNEWGCRCNDSSD; epitope peptide) [compound 705] | 712 |  | 1905 |  | 
3 | 464 (SLLTEVGSLCTEV; epitope peptide) [compound 464] | 1256 |  | 2219 |  | 
4 | 653 (SLLTEVETIIRNEWGCRCNDSSD; epitope peptide) [compound 653] | 756 |  | 2096 |  | 
5 | 690 (SLLTEVHTPIRNEWGCRCNDSSD; epitope peptide) [compound 690] | 722 |  | 2057 |  | 
6 | 656 (SLLTEVETPIWNEWGCRCNDSSD; epitope peptide) [compound 656] | 753 |  | 2250 |  | 
7 | 327 (SLMTEVETPIRNEWGCRCNDSSD; epitope peptide) [compound 327] | 1729 |  | 2149 |  | 
8 | SLLTEVGSLLTEV (epitope peptide) [SEQ ID NO: 320] |  |  |  | best 23k12 binder | recognized
9 | 410 (SLLTEVETPIRNEWGCRCNDLSD; epitope peptide) [compound 410] | 769 | 2494 |  |  | 
10 | 553 (SLLTEVTTPIRNEWGCRCNDSSD; epitope peptide) [compound 553] | 909 |  | 2102 |  | 
11 | 570 (MCLLTEVGCSLLTEV; epitope peptide) [compound 570] | 875 | 2717 |  |  | 
12 | 683 (SLLTEVETPIRNEWGCACNDSSD; epitope peptide) [compound 683] | 729 |  | 2301 |  | 
13 | 381 (SLLQEVETPIRNEWGCRCNDSSD; epitope peptide) [compound 381] | 1399 |  | 2432 |  | 
14 | 588 (SLLTEVETPIRNEWGCRCNCSSD; epitope peptide) [compound 588] | 848 | 2505 |  |  | 
15 | 440 (SLLTEVETPIRNEW; epitope peptide) [compound 440] | 750 | 2334 |  |  | 
16 | 289 (MSLCTEVGMSLCTEV; epitope peptide) [compound 289] | 2153 | 1093 |  |  | 
17 | 311 (SLLTEVGCLLTEV; epitope peptide) [compound 311] | 1859 |  | 1924 |  | 
18 | 577 (SLLTEVETPIRNIWGCRCNDSSD; epitope peptide) [compound 577] | 862 |  | 2490 |  | 
19 | 201 (CEVETPIRNEWGSRSNCSLLTEVETC; epitope peptide) [compound 201] | 1007 |  | 2288 |  | 
20 | 345 (CSLLTEVGSCLTEV; epitope peptide) [compound 345] | 1616 |  | 2703 |  | 
21 | 443 (SLLTEVETPIRNEWGCR; epitope peptide) [compound 443] | 864 | 2444 |  |  | 
22 | 223 (CVETPIRNEWGSRSNDCSLLTEVETC; epitope peptide) [compound 223] | 905 |  | 2233 |  | 
23 | 375 (SLLTEVETPIRNEWGCRVNDSSD; epitope peptide) [compound 375] | 1446 |  | 2316 |  | 
24 | 513 (MCLLTEVGMSLLTEV; epitope peptide) [compound 513] | 1032 | 2697 |  |  | 
25 | 654 (SLLTEVETPIRYEWGCRCNDSSD; epitope peptide) [compound 654] | 755 |  | 2202 |  | 

Row | Substance | Signal (peptides that bind to 23K21 and 8I10) (HuM2e antibody 23K12) | Signal (peptides that bind to Z3G1) [1] | Signal (peptides that show specific binding to Z3G1) [1] | Binding to 23K12 (in words) (HuM2e antibody 23K12) | Binding to Z3G1 (in words) [1]
26 | 457 (SLLTEVETPMRNEWGCRCNDSSD; epitope peptide) [compound 457] | 1281 |  | 2297 |  | 
27 | 618 (SLLTEVETPIRNEWGCRCLDSSD; epitope peptide) [compound 618] | 807 | 2480 |  |  | 
28 | 600 (SLLTEVETPIRNEWGLRCNDSSD; epitope peptide) [compound 600] | 831 |  | 2389 |  | 
29 | 619 (SLLTEVETPIRNEWGCRCNASSD; epitope peptide) [compound 619] | 807 | 2454 |  |  | 
30 | 649 (SLLTEVETTIRNEWGCRCNDSSD; epitope peptide) [compound 649] | 760 |  | 2295 |  | 
31 | 639 (SLLTEVETPIRNEWGCFCNDSSD; epitope peptide) [compound 639] | 767 |  | 2312 |  | 
32 | 538 (LLLTEVETPIRNEWGCRCNDSSD; epitope peptide) [compound 538] | 950 |  | 1399 |  | 
33 | 592 (MSLCTEVGCSLLTEC; epitope peptide) [compound 592] | 840 | 1971 |  |  | 
34 | 380 (SLLTEVETPIRNTWGCRCNDSSD; epitope peptide) [compound 380] | 1409 |  | 2314 |  | 
35 | 428 (SLLTEVETPIRNEWGCRCNDSPD; epitope peptide) [compound 428] | 772 | 2344 |  |  | 
36 | 668 (SLLTEVETPIRNEWGYRCNDSSD; epitope peptide) [compound 668] | 739 |  | 2410 |  | 
37 | 304 (MSLCTEVGMSLLCEV; epitope peptide) [compound 304] | 1935 | 2616 |  |  | 
38 | 605 (SLLTEVETPIRNMWGCRCNDSSD; epitope peptide) [compound 605] | 820 |  | 2455 |  | 
39 | 399 (SLLTEVETPIRNEWGCRCNTSSD; epitope peptide) [compound 399] | 795 | 2483 |  |  | 
40 | 438 (SLLTEVETPIRN; epitope peptide) [compound 438] | 751 | 2130 |  |  | 
41 | 401 (SLLTEVETPIRNEWGCRCNWSSD; epitope peptide) [compound 401] | 999 | 2556 |  |  | 
42 | 614 (SLLTEVETVIRNEWGCRCNDSSD; epitope peptide) [compound 614] | 810 |  | 2264 |  | 
43 | 368 (SLLTEVETPIRNEWG; epitope peptide) [compound 368] | 1486 | 2429 |  |  | 
44 | 290 (CSLLTEVGSLLTCV; epitope peptide) [compound 290] | 2142 |  | 2503 |  | 
45 | 664 (SLLTEVETPIRNEWGNRCNDSSD; epitope peptide) [compound 664] | 746 |  | 2328 |  | 
46 | 496 (SCLTEVGSLLCEV; epitope peptide) [compound 496] | 1095 |  | 1896 |  | 
47 | 445 (SLLTEVETPIRNEWGCRCN; epitope peptide) [compound 445] | 977 | 2506 |  |  | 
48 | 417 (SLLTEVETPIRNEWGCRCNDVSD; epitope peptide) [compound 417] | 772 | 2389 |  |  | 
49 | 302 (ASLLTEVGSCLTEV; epitope sequence) [compound 302] | 1944 |  | 2770 |  | 
